Read-outs that look alike come from different tables or passages of the source. A value given as a limit tells only on which side of the number the result lay.

A word on the pKa: it is the negative logarithm of the acid dissociation constant. The term AUC(0-inf) denotes total exposure, with the tail of the curve extrapolated. Read a low AUC(0-inf) as low exposure. Broadly, the Cmax is the maximum level reached in the sampled fluid or tissue. The IC50 is the concentration that gives 50% inhibition.

In data set [1] the test system is β-catenin protein levels in L-Wnt3a cells. Description: β-catenin expression by flow cytometry. Format: cell-based, mouse. The conditions noted are these: 100 nmol/L, 24 hours. As to the method:
Reporter Assay: Media from L-Wnt3a cells (L cells overexpressing Wnt3a; ATCC CRL-2647) treated with a concentration-series of RXC004, was incubated with the LEADING LIGHT Wnt Reporter Cell Line (Enzo life sciences; ENZ-61002-0001). Luciferase was detected using the ONE-Glo Luciferase Assay System (Promega E6120), data were normalized to DMSO-treated controls and IC50 values determined. Recombinant Wnt3a (Bio-Techne #1324-WN-010) was used at 1 μg/mL. β-catenin expression: L-Wnt3a cells were treated with RXC004 (100 nmol/L) or DMSO (0.1%) for 24 hours. Cellular β-catenin protein levels were quantified by staining with anti-β-catenin (AlexaFluor488, BD 562505) and assessment using an Agilent Novocyte-3000 flow cytometer.
(In general: In flow cytometry, cells or beads pass a laser one at a time.)

The nature of data set [2]: pKa by fast UV (spectrometric) technique. Format: physicochemical. To be noted: 25°C; for pKa: methanol-water mixture. As to the method: pKas were determined using the fast UV (spectrometric) technique. Samples were titrated under methanol-water mixture between pH2.0 and pH12.0 at 30–15 μmol/L at 25°C. The ionic strength was 0.192 mol/L (KCl). Aqueous pKas were determined per Yasuda-Shedlovsky ([17]).

The next data set can be described thus: Hepatocyte stability. In kind it is in vitro ADME, dog (Beagle). To be noted: Dog, 1 μmol/L. Here is the method: Metabolic stability: liver microsomes and hepatocytes from human, mouse (CD1), rat (Sprague Dawley) and dog (Beagle) were obtained from Invitrogen. RXC004 (1 μmol/L) was incubated at 37°C with microsomes (0.5 mg · mL^−1) or hepatocytes (0.5 × 10^6 cells · mL^−1). Aliquots were removed at 0–45 minutes and RXC004 concentrations determined by LC/MS-MS analysis. Half-life (T1/2) and intrinsic clearance (CLint) were calculated as described in ref. [18].

Another data set can be described thus: In vivo pharmacokinetics. Details: species or system mouse (male CD1). To be noted: mouse. Here is the method:
In vivo pharmacokinetics: RXC004 was dosed to male Sprague Dawley rats, male CD1 mice or dog (beagle) by intravenous and oral routes. Bioanalysis of blood and plasma samples was performed by LC/MS-MS using a Waters TQS or TQMS mass spectrometer. Pharmacokinetic information was derived using WinNonlin software (Certara).

In data set [3] the test system is cell lines with RNF43 mutations and RSPO3 fusions. Description: Proliferation, 5 days, ATPLite. In kind it is cell-based, human. To be noted: concentration-series. Here is the method:
(§1) Cells were treated with a concentration-series of RXC004 for 5 days and proliferation measured using ATPLite 1-Step Reagent (Perkin Elmer #6016731). Data were normalized to DMSO-treated controls and IC50 values determined. Colorectal cell lines used were: WiDR (APC-E853*/T1556fs*3), HCT116 (β-cateninΔSer45; RNF43-R117fs*41), JVE-109 (RNF43-V211fs*47/G659fs*41), SNU-1411 (PRPTK-RSPO-3 fusion). Pancreatic cell lines were: CAPAN-2 (RNF43-R330fs*89), AsPC1 (RNF43-S720*), and HPAF-II (RNF43-E174*). Cell lines were from ATCC, except for SNU-1411 (Korean Cell Line Bank) and cultured for no more than 20 passages. Cells were routinely tested for Mycoplasma by the MycoAlert test (Lonza) and authenticated using short tandem repeat fingerprinting.

Data set [4] has as its system cell lines with mutations in downstream Wnt signaling. Description: Proliferation, 5 days, ATPLite. Format: cell-based, human. To be noted: concentration-series. Here is the method: as §1
In general terms: Cellular ATP, detected with luciferase, serves as a proxy for viable cell number.

The next data set concerns HCT116 cells. Description: Wnt-responsive gene expression (qPCR). In kind it is cell-based, human. An excerpt:
(§2) The expression of nine potential Wnt-responsive genes was screened across cell lines by treatment with RXC004 (10 nmol/L) or DMSO (0.1%) for 3 days. RNA was extracted (Aurum RNA isolation kit, Bio-Rad #372-6820) and gene expression assessed by Taqman qPCR relative to appropriate housekeeping genes on the Bio-Rad CFX real-time system.
(§3) For concentration–response effects on gene expression, Single-Shot Cell Lysis kit (Bio-Rad #172-5080) was used for RNA extraction, data were normalized to DMSO-treated controls, and IC50 values determined. For cell-cycle analysis, the cancer cell line panel was treated with RXC004 (100 nmol/L) or DMSO (0.1%) for 3 days. Cell-cycle profiles were determined by staining with propidium iodide (Thermo Fisher Scientific #P3566) and phospho-Ser10-Histone-H3 (AlexaFluor-647, BioLegend #650806), and quantified using an Agilent Novocyte-3000 flow cytometer. For in vitro growth curve analysis, HPAF-II and SNU-1411 cells were seeded in 96-well plates at 2,000 cells/well and imaged on the IncuCyte (Sartorius) at 10× magnification with 4 fields of view per well. Total cell object count over time was calculated using the Adherent Cell-by-Cell analysis module.

Another data set concerns WiDR cells. As to the kind of experiment: Wnt-responsive gene expression (qPCR). Format: cell-based, human.
Description: as §2, §3

The test system of data set [5] is cell lines with RNF43 LoF mutations and RSPO3 fusions. Description: Wnt-responsive gene expression (qPCR). Format: cell-based, human. The conditions noted are these: 10 nmol/L, 3 days.
Description: as §2, §3
Background: Quantitative PCR measures a nucleic acid by following its amplification.

The test system of another data set is SNU-1411 xenograft. As to the kind of experiment: In vivo 18FDG-PET. Details: species or system mouse (NOD-SCID). To be noted: SNU-1411, 5 mg/kg once daily. As to the method: Experiment was performed at Medicines Discovery Catapult. SNU-1411 (1 × 10^7 cells; NOD-SCID mice) or HPAF-II (1 × 10^7 cells; NOD-SCID mice) were implanted subcutaneously and treatment with RXC004 (5 mg/kg once daily) or vehicle commenced when tumors reached approximately 200 mm^3. Mice were imaged prior to dosing, day 3 and day 7 after dosing. A 10 MBq injection of ^18FDG (PETNET), with a 45-minute washout was followed by a 20-minute PET scan using a Siemens Inveon PET scanner. Tissues removed on day 7 for biodistribution analysis were assessed using a PerkinElmer Wallac Wizard Gamma counter.

The mark [6] stands for this setting: male, CD1, in vivo, po, 5 mg/kg p.o.

Regarding `Cc1c(-c2ccnc(C(F)(F)F)c2)ncn1CC(=O)Nc1ccc(-c2cnccn2)cn1` [RXC004, 2-[5-methyl-4-[2-(trifluoromethyl)-4-pyridyl]imidazol-1-yl]-N-(5-pyrazin-2-yl-2-pyridyl)acetamide], in data set [1], the β-catenin protein levels entry was “reduces β-catenin protein levels in L-Wnt3a cells back to baseline”. Moreover, the “pKa (most basic)” value in data set [2] is reported as 3.84. Further, the pKa in data set [2] (read-out: pKa (most acidic)) came out at 11.2; in data set [2] (read-out: pKa (most basic)), 3.8. Also, in the data set “Hepatocyte stability”, the “Hepatocyte stability: CLint” value is on record as 12.5 μL minute^−^1 · 10^6 cells^−^1. In the data set “In vivo pharmacokinetics” (male, CD1, in vivo, intravenous, 2 mg/kg, dose i.v./p.o. 2/5 mg/kg), this compound came in with a clearance of 2.9 mL/min/kg. For the same compound, the Vd in “In vivo pharmacokinetics” (male, CD1, in vivo, intravenous, 2 mg/kg, dose i.v./p.o. 2/5 mg/kg, read-out: Vss) came to 0.4 L/kg. In addition, the AUC(0-inf) in the data set “In vivo pharmacokinetics” (setting [6]) was 33.9 µM·h. In “In vivo pharmacokinetics” (setting [6]), this compound displayed a Cmax of 7.6 µM. In the data set “In vivo pharmacokinetics” (male, CD1, in vivo, po, 5 mg/kg p.o., read-out: C24h (p.o.)), the concentration at 24 h turned out to be 0.002 µM. The half-life in the data set “In vivo pharmacokinetics” (male, CD1, in vivo, dose i.v./p.o. 2/5 mg/kg, read-out: T½ (converted)) was 1.8 h. For the same compound, the “F (p.o.)” value in “In vivo pharmacokinetics” (dose i.v./p.o. 2/5 mg/kg) is recorded as 48%. Further, the figures for the proliferation entry in [3] and in data set [4] were “inhibited proliferation” and “had no effect”, respectively. The “Wnt pathway target expression” value in the data set with HCT116 cells (HCT116, 10 nmol/L, 3 days) was “Minimal effects”; with WiDR cells (WiDR, 10 nmol/L, 3 days), “Minimal effects”. The half-inhibitory concentration (IC50) was > 10 µM in the data set on HCT116 cells (Homo sapiens, HCT-116, HCT116, read-out: IC50, c-Myc mRNA expression) and > 10 µM with WiDR cells (Homo sapiens, WiDr, read-out: IC50, c-Myc mRNA expression). Besides, the “mRNA expression of Wnt pathway targets Axin2, RNF43, c-Myc, CD44, MMP7” value in data set [5] is listed as “downregulated mRNA expression of Wnt pathway targets”. Also, the “mucin mRNA” value in data set [5] was “marked increase in mucin mRNA”. Moreover, the “18FDG tumor:blood ratios” value in the data set with SNU-1411 xenograft (7-day dosing) is recorded as “significant decrease in tumor:blood ratios”. The “decrease in maximum standardized uptake value (18FDG-PET)” value in the data set on SNU-1411 xenograft (day 7, versus vehicle) stood at 31%.

For the origin of these results see publication PMC10010340, “The Wnt Pathway Inhibitor RXC004 Blocks Tumor Growth and Reverses Immune Evasion in Wnt Ligand–dependent Cancer Models” (Cancer Research Communications, 2022).
